Results: US11390590B2, “Methods and processes for the preparation of KDM1A inhibitors” (Imago Biosciences, Inc., priority 2016, dated 2022)
Converted amounts (≈) assume the structure as drawn. Where a name gives a salt, the structure may show the parent alone.

Legend:
Assay type in all cases: physicochemical
[1] = Exploration of product stability in alkaline conditions; conditions: for Assay: 15~25° C.
Source text: Exploration of Product Stability in Alkaline Conditions.

[2] = Exploration of solubility: 300 mg slurry in solvent (10 V) at 15~20° C.; conditions: for solubility: 15 °C, organic solvent or mixture, thermodynamic from solid; for solubility / Solubility (mg/mL): 300 mg slurry at 15~20° C.
Source text: Exploration of Step 3: Amide Formation. Exploration of Product Solubility.
Exploration of the Solubility of 4 in Various Solvents.

[3] = Exploration of solvent for filtration: 5a slurry in solvent; conditions: 500 mg slurry, HCl (EtOH) charged, 15˜25° C. for 20 h
Experimental: Exploration of Solvent for Filtration.
Experiments were performed 15˜25° C. for 20 h.

In the case of COC(=O)CC[C@H](NC(=O)c1ccc(-n2ccnn2)cc1)C(=O)N1CCN(C)CC1 [Compound 3, methyl (4S)-4-[4-(1H-1,2,3-triazol-1-yl)benzoylamino]-5-(4-methylpiperazin-1-yl)-5-oxopentanoate], the Assay ([1]; 1.0 g, pH 9-10 with 6M LiOH aqueous solution, 0 h) is reported as 1.0 g, the Assay ([1]; 1.0 g, pH 9-10 with 6M LiOH aqueous solution, +10 h) is reported as 1.0 g and the Assay ([1]; 1.0 g, pH 9-10 with 6M LiOH aqueous solution, +24 h (first)) is reported as 1.0 g. The Assay ([1]; 1.0 g, pH 9-10 with 6M LiOH aqueous solution, +24 h (second)) was 1.0 g, the Assay ([1]; 1.0 g, pH 9-10 with 10 wt. % K2CO3 aqueous solution, 0 h) was 1.0 g and the Assay ([1]; 1.0 g, pH 9-10 with 10 wt. % K2CO3 aqueous solution, +10 h) was 0.90 g. For the same compound, the Assay ([1]; 1.0 g, pH 9-10 with 10 wt. % K2CO3 aqueous solution, +24 h (first)) was 0.87 g, the Assay ([1]; 1.0 g, pH 9-10 with 10 wt. % K2CO3 aqueous solution, +24 h (second)) was 0.87 g and the Assay ([1]; 1.0 g, pH 9-10 with 10 wt. % Na2CO3 aqueous solution, 0 h) was 1.0 g. The Assay ([1]; 1.0 g, pH 9-10 with 10 wt. % Na2CO3 aqueous solution, +10 h) was 0.99 g, the Assay ([1]; 1.0 g, pH 9-10 with 10 wt. % Na2CO3 aqueous solution, +24 h (first)) was 0.97 g and the Assay ([1]; 1.0 g, pH 9-10 with 10 wt. % Na2CO3 aqueous solution, +24 h (second)) was 0.99 g. It also gave an Assay ([1]; 1.0 g, pH 9-10 with 10 wt. % NaOH aqueous solution, 0 h) of 1.0 g, an Assay ([1]; 1.0 g, pH 9-10 with 10 wt. % NaOH aqueous solution, +10 h) of 1.0 g and an Assay ([1]; 1.0 g, pH 9-10 with 10 wt. % NaOH aqueous solution, +24 h (first)) of 1.0 g. For the same compound, the Assay ([1]; 1.0 g, pH 9-10 with 10 wt. % NaOH aqueous solution, +24 h (second)) was 1.0 g, the Assay ([1]; 1.1 g, pH 10-11 with NaOH aqueous solution (6N), 0 h) was 0.7 g and the Assay ([1]; 1.1 g, pH 10-11 with NaOH aqueous solution (6N), +7 h (after +20 h)) was 0.4 g. For the same compound, the Assay ([1]; 1.1 g, pH 10-11 with NaOH aqueous solution (6N), +20 h) was 0.5 g, the Assay ([1]; 1.1 g, pH 10-11 with NaOH aqueous solution (6N), +24 h (first, after +7 h)) was 0.3 g and the Assay ([1]; 1.1 g, pH 10-11 with NaOH aqueous solution (6N), +24 h (second)) was 0.2 g. The “stability (conclusion)” value ([1]; in the presence of K2CO3) was “relatively instable”, the “stability (conclusion)” value ([1]; pH>10 in basic aqueous solution) was “not stable” and the “stability (conclusion)” value ([1]; weak basic aqueous solution, pH=9-10) was “relatively stable”. It also gave a solubility ([2]; Acetonitrile (10 V)) of 29500 µg/mL (≈ 71.2 mM), a solubility ([2]; EtOAc (10 V)) of 9000 µg/mL (≈ 21.7 mM) and a solubility ([2]; EtOH (10 V)) of 22500 µg/mL (≈ 54.3 mM). The solubility ([2]; IPA (10 V)) was 14100 µg/mL (≈ 34 mM), the solubility ([2]; IPAc (10 V)) was 4800 µg/mL (≈ 11.6 mM) and the solubility ([2]; MTBE (10 V)) was 600 µg/mL (≈ 1.45 mM). The solubility ([2]; THF (10 V)) was 84200 µg/mL (≈ 203 mM), the “Solubility (mg/mL)” value ([2]; DCM (10 V)) was “Dissolved completely” and the “Solubility (mg/mL)” value ([2]; Heptane (10 V)) was “insoluble”. For the same compound, the “Solubility (mg/mL)” value ([2]; MeOH (10 V)) was “Dissolved completely” and the “solubility (conclusion)” value ([2]; in DCM, THF or MeOH) was “good solubility”.

Compound CN1CCN(C(=O)[C@H](CCC(=O)O)NC(=O)c2ccc(-n3ccnn3)cc2)CC1 [Compound 4, (4S)-4-[4-(1H-1,2,3-triazol-1-yl)benzoylamino]-5-(4-methylpiperazin-1-yl)-5-oxopentanoic Acid] has a solubility ([2]; Acetonitrile (10 V)) of 400 µg/mL (≈ 0.999 mM), a solubility ([2]; DCM (10 V)) of 1000 µg/mL (≈ 2.5 mM) and a solubility ([2]; EtOAc (10 V)) of 400 µg/mL (≈ 0.999 mM). It also gave a solubility ([2]; EtOH (10 V)) of 4000 µg/mL (≈ 9.99 mM), a solubility ([2]; IPA (10 V)) of 900 µg/mL (≈ 2.25 mM) and a solubility ([2]; IPAc (10 V)) of 1000 µg/mL (≈ 2.5 mM). The solubility ([2]; MeOH (10 V)) was 37000 µg/mL (≈ 92.4 mM), the solubility ([2]; THF (10 V)) was 1200 µg/mL (≈ 3 mM) and the “stability in MeOH (conclusion of the solubility table)” value ([2]; MeOH) was “high stability”. The “solubility (conclusion)” value ([2]; other tested solvents (than MeOH)) was “lower solubility”.

In the case of CCCCCCCCCCCCSC(=O)CC[C@H](NC(=O)c1ccc(-n2ccnn2)cc1)C(=O)N1CCN(C)CC1 [Compound 5a, dodecyl (4S)-4-[4-(1H-1,2,3-triazol-1-yl)benzoylamino]-5-(4-methyl-piperazin-1-yl)-5-oxopentanethioate Hydrochloride Salt], the “Result (solubility)” value ([3]; DMSO (20 V)) is reported as “Soluble” and the “Result (solubility)” value ([3]; NMP (20 V)) is reported as “Soluble”.
